Results as given in a compilation of properties of binary mixtures (doi:10.1021/je970101l).

Assay: excess molar enthalpy (molar enthalpy of mixing); xn = mol fraction of the nth substance listed
Conditions: 298.15 K, 100 kPa

CCCOC(C)=O + COC(=O)OC
Conditions | excess molar enthalpy [kcal/mol]
x2 = 0.0538 | 0.00789
x2 = 0.1021 | 0.0143
x2 = 0.1457 | 0.0196
x2 = 0.1853 | 0.0249
x2 = 0.2544 | 0.0311
x2 = 0.3127 | 0.0361
x2 = 0.4056 | 0.0413
x2 = 0.4764 | 0.0437
x2 = 0.5771 | 0.044
x2 = 0.6718 | 0.0409
x2 = 0.8912 | 0.0174
x2 = 0.9161 | 0.0134

COC(C)=O + COC(=O)OC
Conditions | excess molar enthalpy [kcal/mol]
x2 = 0.0729 | -0.000191
x2 = 0.1055 | -0.000574
x2 = 0.1359 | -0.0011
x2 = 0.2393 | -0.00237
x2 = 0.3206 | -0.00289
x2 = 0.3862 | -0.00313
x2 = 0.586 | -0.00232
x2 = 0.739 | -0.00098
x2 = 0.7906 | -0.000669
x2 = 0.8499 | -9.56e-05
x2 = 0.883 | 0.000167
x2 = 0.9189 | 0.000454
x2 = 0.9577 | 0.000215

CCCCCOC(C)=O + COC(=O)OC
Conditions | excess molar enthalpy [kcal/mol]
x2 = 0.0684 | 0.0139
x2 = 0.128 | 0.0272
x2 = 0.1804 | 0.0392
x2 = 0.2269 | 0.0502
x2 = 0.3057 | 0.0669
x2 = 0.3699 | 0.0808
x2 = 0.54 | 0.0954
x2 = 0.6378 | 0.093
x2 = 0.7254 | 0.0815
x2 = 0.7789 | 0.0722
x2 = 0.8409 | 0.0571
x2 = 0.8757 | 0.0476
x2 = 0.9337 | 0.0263
x2 = 0.9548 | 0.0179
x2 = 0.9769 | 0.00908

CCCCCCOC(C)=O + COC(=O)OC
Conditions | excess molar enthalpy [kcal/mol]
x2 = 0.0755 | 0.0206
x2 = 0.1404 | 0.0382
x2 = 0.2462 | 0.0688
x2 = 0.3289 | 0.0899
x2 = 0.3951 | 0.104
x2 = 0.4949 | 0.116
x2 = 0.5665 | 0.12
x2 = 0.7462 | 0.101
x2 = 0.7967 | 0.0903
x2 = 0.8546 | 0.0698
x2 = 0.9216 | 0.0406
x2 = 0.94 | 0.0304
x2 = 0.9522 | 0.0261

C=COC(C)=O + COC(=O)OC
Conditions | excess molar enthalpy [kcal/mol]
x2 = 0.0437 | -0.001
x2 = 0.0838 | -0.00268
x2 = 0.1207 | -0.0039
x2 = 0.1546 | -0.00507
x2 = 0.2153 | -0.00722
x2 = 0.2679 | -0.00872
x2 = 0.3544 | -0.0104
x2 = 0.4226 | -0.0111
x2 = 0.5233 | -0.0111
x2 = 0.6222 | -0.0103
x2 = 0.8145 | -0.00571
x2 = 0.8682 | -0.00361
x2 = 0.8978 | -0.00253
x2 = 0.9294 | -0.00143
x2 = 0.9634 | -0.000645

CCCCOC(C)=O + COC(=O)OC
Conditions | excess molar enthalpy [kcal/mol]
x2 = 0.0612 | 0.0117
x2 = 0.1153 | 0.022
x2 = 0.1636 | 0.0313
x2 = 0.2068 | 0.0397
x2 = 0.2812 | 0.0509
x2 = 0.3428 | 0.0586
x2 = 0.4389 | 0.0667
x2 = 0.5105 | 0.0688
x2 = 0.7578 | 0.0554
x2 = 0.8112 | 0.0454
x2 = 0.8622 | 0.0361
x2 = 0.9037 | 0.0263
x2 = 0.926 | 0.0203
x2 = 0.9494 | 0.0143
x2 = 0.9741 | 0.00765

CCOC(C)=O + COC(=O)OC
Conditions | excess molar enthalpy [kcal/mol]
x2 = 0.0426 | 0.00177
x2 = 0.0883 | 0.00289
x2 = 0.1269 | 0.00413
x2 = 0.1623 | 0.00504
x2 = 0.2252 | 0.00626
x2 = 0.3677 | 0.00832
x2 = 0.5376 | 0.00975
x2 = 0.6356 | 0.00956
x2 = 0.7772 | 0.00755
x2 = 0.823 | 0.00667
x2 = 0.9029 | 0.00406
x2 = 0.9331 | 0.00284
x2 = 0.9654 | 0.00146
